These are literature values, as cited in US8377979B2, “Pharmaceutical formulation containing phenytoin sodium and magnesium stearate” (Taro Pharmaceuticals North America, Inc., priority 2005, dated 2013).

For series [1] the following is noted: gastrointestinal pH range of 1 to 8.
The conditions of series [2]: man, oral administration.

For `O=C1NC(=O)C(c2ccccc2)(c2ccccc2)N1` [phenytoin, 5,5-diphenyl-2,4-imidazolidinedione], the solubility result in series [1] is “practically insoluble”. The “plasma half-life, average” value in series [2] was 22 h.
